This is an account of results in patent US8653263B2 (Janssen Pharmaceutica, priority 2009, dated 2014).

Sequence of human orexin-2 receptor (O43614 whole entry): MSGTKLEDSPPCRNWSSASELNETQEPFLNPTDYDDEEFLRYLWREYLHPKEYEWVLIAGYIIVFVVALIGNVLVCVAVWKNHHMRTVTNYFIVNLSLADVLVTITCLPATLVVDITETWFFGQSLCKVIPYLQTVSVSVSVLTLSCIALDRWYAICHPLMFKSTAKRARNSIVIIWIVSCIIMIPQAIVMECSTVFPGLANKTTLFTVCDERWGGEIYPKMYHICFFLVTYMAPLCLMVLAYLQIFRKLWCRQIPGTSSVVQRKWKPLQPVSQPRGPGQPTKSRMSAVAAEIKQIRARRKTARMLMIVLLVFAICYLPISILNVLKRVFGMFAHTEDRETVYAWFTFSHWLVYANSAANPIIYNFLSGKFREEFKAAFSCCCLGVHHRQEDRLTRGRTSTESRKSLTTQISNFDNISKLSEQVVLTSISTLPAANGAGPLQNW

The first experiment concerns the target human orexin-2 receptor (Homo sapiens (Human), UniProt O43614). Nature of the experiment: Human orexin 2 receptor radioligand binding ([3H]-EMPA competition). The note with it: HEK293 cells stably expressing human orexin-2 receptor; [3H]-EMPA 5 nM final; apparent Ki=IC50/(1+C/Kd), Kd=2 nM; read-out: OR 2 Ki.
Turning to `Cc1nc(N2CC3CN(C(=O)c4ccccc4-c4ncn(C)n4)CC3C2)nc(C)c1Cl` (stereo not shown) [Example 320, 2-(5-Chloro-4,6-dimethylpyrimidin-2-yl)-5-{[2-(1-methyl-1H-1,2,4-triazol-3-yl)phenyl]carbonyl}octahydropyrrolo[3,4-c]pyrrole], the Ki stood at 4 nM.
On the same count and under the same terms, with `CCc1c(C)nc(N2CC3CN(C(=O)c4ccccc4-c4ncn(C)n4)CC3C2)nc1C` (stereo not shown) [Example 322, 2-(5-Ethyl-4,6-dimethylpyrimidin-2-yl)-5-{[2-(1-methyl-1H-1,2,4-triazol-3-yl)phenyl]carbonyl}octahydropyrrolo[3,4-c]pyrrole] the figure was 10 nM.
Still for that read-out and setting: then `Cc1nc(N2CC3CN(C(=O)c4ncccc4-n4nccn4)CC3C2)nc(C)c1C` (stereo not shown) [Example 323, 2-{[3-(2H-1,2,3-Triazol-2-yl)pyridin-2-yl]carbonyl}-5-(4,5,6-trimethylpyrimidin-2-yl)octahydropyrrolo[3,4-c]pyrrole], with 25 nM; and `Cc1nc(N2CC3CN(C(=O)c4ncccc4-n4nccn4)CC3C2)nc(C)c1F` (stereo not shown) [Example 325, 2-(5-Fluoro-4,6-dimethylpyrimidin-2-yl)-5-{[3-(2H-1,2,3-triazol-2-yl)pyridin-2-yl]carbonyl}octahydropyrrolo[3,4-c]pyrrole], with 16 nM; and `Cc1cc(C)nc(N2CC3CN(C(=O)c4cccc5c4-c4ccccc4C5)CC3C2)n1` (stereo not shown) [Example 326, 2-(4,6-Dimethylpyrimidin-2-yl)-5-(9H-fluoren-4-ylcarbonyl)octahydropyrrolo[3,4-c]pyrrole], with 8 nM.
On the same count and under the same terms, with `Cc1cc(C)nc(N2CC3CN(C(=O)c4c(-n5nccn5)ccc5c4OCO5)CC3C2)n1` (stereo not shown) [Example 327, [5-(4,6-Dimethyl-pyrimidin-2-yl)-hexahydro-pyrrolo[3,4-c]pyrrol-2-yl]-(5-[1,2,3]triazol-2-yl-benzo[1,3]dioxol-4-yl)methanone] the figure was 103 nM; with `Cc1cc(C)nc(N2CC3CN(C(=O)c4cccc5cccc(-n6nccn6)c45)CC3C2)n1` (stereo not shown) [Example 328, [5-(4,6-Dimethyl-pyrimidin-2-yl)-hexahydro-pyrrolo[3,4-c]pyrrol-2-yl]-(8-[1,2,3]triazol-2-yl-naphthalen-1-yl)-methanone], 112 nM.
Take `COc1ccc(C(C)(C)C)cc1C(=O)N1CC2CN(c3nc(C)cc(C)n3)CC2C1` (stereo not shown) [Example 330, (5-tert-Butyl-2-methoxy-phenyl)-[5-(4,6-dimethyl-pyrimidin-2-yl)-hexahydro-pyrrolo[3,4-c]pyrrol-2-yl]-methanone]: the Ki is 10000 nM.
Turning to `Cc1cc(C)nc(N2CC3CN(C(=O)c4cccc5c4OCCCO5)CC3C2)n1` (stereo not shown) [Example 334, (3,4-Dihydro-2H-benzo[b][1,4]dioxepin-6-yl)-[5-(4,6-dimethyl-pyrimidin-2-yl)-hexahydro-pyrrolo[3,4-c]pyrrol-2-yl]-methanone], the Ki amounted to 277 nM.
Consider `Cc1cccc(-c2cc(F)ccc2C(=O)N2CC3CN(c4nc(C)cc(C)n4)CC3C2)n1` (stereo not shown) [Example 335, (5-(4,6-dimethylpyrimidin-2-yl)hexahydropyrrolo[3,4-c]pyrrol-2(1H)-yl)(4-fluoro-2-(6-methylpyridin-2-yl)phenyl)methanone], for which the Ki was 59 nM.
With `Cc1cc(C)nc(N2CC3CN(C(=O)c4ccc(C)nc4-n4ccnn4)CC3C2)n1` (stereo not shown) [Example 336, [5-(4,6-Dimethyl-pyrimidin-2-yl)-hexahydro-pyrrolo[3,4-c]pyrrol-2-yl]-(6-methyl-2-[1,2,3]triazol-1-yl-pyridin-3-yl)-methanone], the Ki was 288 nM.
On the same count and under the same terms, with `Cc1cc(C)nc(N2CC3CN(C(=O)c4ccc5ccccc5c4Br)CC3C2)n1` (stereo not shown) [Example 337, (1-Bromo-naphthalen-2-yl)-[5-(4,6-dimethyl-pyrimidin-2-yl)-hexahydro-pyrrolo[3,4-c]pyrrol-2-yl]-methanone] the figure was 513 nM.

Still in this experiment, the particulars now being: read-out: OR 2 Ki.
For the compound `Cc1nc(N2CC3CN(C(=O)c4ccccc4-c4ncn(C)n4)CC3C2)ncc1Cl` (stereo not shown) [Example 321, 2-(5-Chloro-4-methylpyrimidin-2-yl)-5-{[2-(1-methyl-1H-1,2,4-triazol-3-yl)phenyl]carbonyl}octahydropyrrolo[3,4-c]pyrrole], the Ki is 29 nM.
